Laboratory results as given in paper PMC2830944, “Purification and functional characterization of protoplasts and intact vacuoles from grape cells” (BMC Research Notes, 2010).

Tests used:
[1] = system: T1, V-ATPase (vacuolar ATPase, V-H+-ATPase); test: ACMA fluorescence quenching, initial velocity of proton pumping in intact vacuoles; type: biochemical, Vitis vinifera; conditions: 100 mM KCl, 2 mM MgCl2, 0.1% BSA, 10 mM MOPS-Tris pH 7.2, 2 μM ACMA; 0.05 to 1.5 mM ATP
T1 construct: gene VHA-A; native multisubunit complex in intact vacuoles isolated from protoplasts of cultured grape berry cells

[2] = system: V-PPase (vacuolar inorganic pyrophosphatase, V-H+-PPase); conditions: 100 mM KCl, 2 mM MgCl2, 0.1% BSA, 10 mM MOPS-Tris pH 7.2, 2 μM ACMA; 0.1 to 150 μM PPi

Km [1] [µM] | Km [2] [µM] | SMILES
340 |  | Nc1ncnc2c1ncn2[C@@H]1O[C@H](COP(=O)(O)OP(=O)(O)OP(=O)(O)O)[C@@H](O)[C@H]1O [ATP]
 | 2 | O=P(O)(O)OP(=O)(O)O [PPi]
